Measured values as given in paper PMC8569681, “New Pyrimidine and Pyridine Derivatives as Multitarget Cholinesterase Inhibitors: Design, Synthesis, and In Vitro and In Cellulo Evaluation” (ACS Chemical Neuroscience, 2021).

target: T1, Electrophorus electricus AChE (EeAChE) (Electrophorus electricus, UniProt O42275); experiment: Percent inhibition of EeAChE, Ellman's spectrophotometric method; assay type: biochemical; settings: read-out: % inhibition vs EeAChE ± SD (9 uM), 9 uM; supplement csv
T1 construct: purchased Sigma-Aldrich (Milan, Italy)
T1 sequence (O42275 24-633): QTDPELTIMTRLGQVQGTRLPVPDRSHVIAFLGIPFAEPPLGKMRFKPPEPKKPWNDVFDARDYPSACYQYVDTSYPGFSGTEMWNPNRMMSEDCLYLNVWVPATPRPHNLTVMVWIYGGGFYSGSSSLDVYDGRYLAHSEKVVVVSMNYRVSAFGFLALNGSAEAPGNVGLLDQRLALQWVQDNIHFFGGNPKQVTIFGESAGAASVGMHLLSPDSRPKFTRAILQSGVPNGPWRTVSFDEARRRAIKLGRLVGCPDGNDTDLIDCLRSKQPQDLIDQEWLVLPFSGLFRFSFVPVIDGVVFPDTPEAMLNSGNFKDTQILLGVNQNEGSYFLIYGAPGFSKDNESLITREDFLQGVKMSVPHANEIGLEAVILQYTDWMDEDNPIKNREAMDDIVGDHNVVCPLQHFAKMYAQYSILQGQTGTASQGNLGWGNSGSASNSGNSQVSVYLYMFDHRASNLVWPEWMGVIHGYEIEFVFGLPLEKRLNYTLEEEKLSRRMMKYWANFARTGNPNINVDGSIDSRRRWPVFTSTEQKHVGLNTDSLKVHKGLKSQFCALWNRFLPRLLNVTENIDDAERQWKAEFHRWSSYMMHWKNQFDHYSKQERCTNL
Experimental: (§1) All other chemical and biological reagents and solvents used were of the highest analytical, commercially available grade. The water, utilized for the preparation of the phosphate buffer and of the compound solutions, was distilled and filtered on nylon membrane filters with a 0.2 μm pore size with the Millipore Filtration apparatus before each use. Micropipettes Labmate (BRAND Dig. 10–100 μL; Dig. 100–1000 μL; Dig. 0.1–2 μL) and Transferpette (HIGH TECH LAB LM200: 20–200 μL; LM5000: 1000–5000 μL) were used to collect the samples. The assays were carried out by a double beam UV–vis Lambda 40 Perkin Elmer spectrophotometer using optical polystyrene cuvettes (10 × 10 × 45 mm, 340–800 nm optical transparency); each measure was repeated at least in triplicate. […] The spectrophotometric method of Ellman[25] with minor modifications was used to evaluate the inhibition of ChEs. […] EeAChE and eqBChE were periodically tested to evaluate the effective enzymatic activity.
(§2) For all the synthesized compounds, the percentages of inhibition toward AChE of Electrophorus electricus (EeAChE) and equine BChE (eqBChE) were evaluated.
Three milliliters of a solution in 0.1 M phosphate buffer (pH = 7.4) containing DTNB (0.25 mM) and EeAChE (0.083 UmL^–1) or eqBChE (0.083 UmL^–1) was placed in a polystyrene cuvette of 1.0 cm path length; 1 μL of a […] With this solution, the blank was made. […] Each experiment was repeated at least in triplicate.

Structure (SMILES) | inhibition at 9 µM [%]
Brc1ccc(CNCCCCCNc2ccccn2)cc1 [Compound 24, N^1-(4-Bromobenzyl)-N^5-(pyridin-2-yl)pentane-1,5-diamine] | 18.2 ± 3.5
Clc1ccc(CNCCCCCCNc2ccccn2)cc1 [Compound 27, N^1-(4-Chlorobenzyl)-N^6-(pyridin-2-yl)hexane-1,6-diamine] | 27.7 ± 4.7
COc1cc(CNCCCCCCNc2ccccn2)cc(OC)c1OC [Compound 29, N^1-(Pyridin-2-yl)-N^6-(3,4,5-trimethoxybenzyl)hexane-1,6-diamine] | 30.9 ± 1.1
Oc1cccc(CNCCCCCCNc2ccccn2)c1 [Compound 31, 3-(((6-(Pyridin-2-ylamino)hexyl)amino)methyl)phenol] | 42.2 ± 2.2
Oc1cccc(CNCCCCCCNc2ccccn2)c1O [Compound 32, 3-(((6-(Pyridin-2-ylamino)hexyl)amino)methyl)benzene-1,2-diol] | 63.9 ± 2.2
Clc1cc(CNCCCCCCNc2ccccn2)cc(Cl)n1 [Compound 33, N^1-((2,6-Dichloropyridin-4-yl)methyl)-N^6-(pyridin-2-yl)hexane-1,6-diamine] | 40.6 ± 4.1

same assay, conditions: read-out: % inhibition vs EeAChE ± SD (90 uM), 90 uM; supplement csv

Structure (SMILES) | inhibition at 90 µM [%]
Brc1ccc(CNCCCCCNc2ccccn2)cc1 [Compound 24, N^1-(4-Bromobenzyl)-N^5-(pyridin-2-yl)pentane-1,5-diamine] | 56.4 ± 1.6
Clc1ccc(CNCCCCCCNc2ccccn2)cc1 [Compound 27, N^1-(4-Chlorobenzyl)-N^6-(pyridin-2-yl)hexane-1,6-diamine] | 73.2 ± 3.6
COc1cc(CNCCCCCCNc2ccccn2)cc(OC)c1OC [Compound 29, N^1-(Pyridin-2-yl)-N^6-(3,4,5-trimethoxybenzyl)hexane-1,6-diamine] | 68.9 ± 4.1
Oc1cccc(CNCCCCCCNc2ccccn2)c1 [Compound 31, 3-(((6-(Pyridin-2-ylamino)hexyl)amino)methyl)phenol] | 56 ± 3.8
Oc1cccc(CNCCCCCCNc2ccccn2)c1O [Compound 32, 3-(((6-(Pyridin-2-ylamino)hexyl)amino)methyl)benzene-1,2-diol] | 59.8 ± 1.5
Clc1cc(CNCCCCCCNc2ccccn2)cc(Cl)n1 [Compound 33, N^1-((2,6-Dichloropyridin-4-yl)methyl)-N^6-(pyridin-2-yl)hexane-1,6-diamine] | 68.3 ± 2.9

same assay, conditions: read-out: % inhibition vs EeAChE ± SD (900 uM), 900 uM; supplement csv

Structure (SMILES) | inhibition at 900 µM [%]
Oc1cccc(CNCCCCCCNc2ccccn2)c1O [Compound 32, 3-(((6-(Pyridin-2-ylamino)hexyl)amino)methyl)benzene-1,2-diol] | 23.9 ± 1.5
Clc1cc(CNCCCCCCNc2ccccn2)cc(Cl)n1 [Compound 33, N^1-((2,6-Dichloropyridin-4-yl)methyl)-N^6-(pyridin-2-yl)hexane-1,6-diamine] | 6.2 ± 1.1

same assay, conditions: read-out: % inhibition vs EeAChE ± SD, [I] 900 nM; 0.0833 U/mL enzyme, 100 μM acetylthiocholine

Structure (SMILES) | inhibition at 0.9 µM [%]
Oc1cccc(CNCCCCCCNc2ccccn2)c1O [Compound 32, 3-(((6-(Pyridin-2-ylamino)hexyl)amino)methyl)benzene-1,2-diol] | 23.9 ± 1.5
Clc1cc(CNCCCCCCNc2ccccn2)cc(Cl)n1 [Compound 33, N^1-((2,6-Dichloropyridin-4-yl)methyl)-N^6-(pyridin-2-yl)hexane-1,6-diamine] | 6.2 ± 1.1

same assay, conditions: read-out: % inhibition vs EeAChE ± SD, [I] 9 μM; 0.0833 U/mL enzyme, 100 μM acetylthiocholine

Structure (SMILES) | inhibition at 9 µM [%]
Brc1ccc(CNCCCCCNc2ccccn2)cc1 [Compound 24, N^1-(4-Bromobenzyl)-N^5-(pyridin-2-yl)pentane-1,5-diamine] | 18.2 ± 3.5
Clc1ccc(CNCCCCCCNc2ccccn2)cc1 [Compound 27, N^1-(4-Chlorobenzyl)-N^6-(pyridin-2-yl)hexane-1,6-diamine] | 24 to 30
COc1cc(CNCCCCCCNc2ccccn2)cc(OC)c1OC [Compound 29, N^1-(Pyridin-2-yl)-N^6-(3,4,5-trimethoxybenzyl)hexane-1,6-diamine] | 24 to 30
Oc1cccc(CNCCCCCCNc2ccccn2)c1 [Compound 31, 3-(((6-(Pyridin-2-ylamino)hexyl)amino)methyl)phenol] | ~40
Oc1cccc(CNCCCCCCNc2ccccn2)c1O [Compound 32, 3-(((6-(Pyridin-2-ylamino)hexyl)amino)methyl)benzene-1,2-diol] | ~60
Clc1cc(CNCCCCCCNc2ccccn2)cc(Cl)n1 [Compound 33, N^1-((2,6-Dichloropyridin-4-yl)methyl)-N^6-(pyridin-2-yl)hexane-1,6-diamine] | ~40

target: T2, equine BChE (eqBChE) (Equus caballus, UniProt P81908); experiment: Percent inhibition of eqBChE, Ellman's spectrophotometric method; assay type: biochemical; settings: [I] 900 nM; 0.0833 U/mL enzyme, 100 μM acetylthiocholine; read-out: % inhibition vs eqBChE ± SD
T2 construct: purchased Sigma-Aldrich (Milan, Italy)
T2 sequence (P81908 whole entry): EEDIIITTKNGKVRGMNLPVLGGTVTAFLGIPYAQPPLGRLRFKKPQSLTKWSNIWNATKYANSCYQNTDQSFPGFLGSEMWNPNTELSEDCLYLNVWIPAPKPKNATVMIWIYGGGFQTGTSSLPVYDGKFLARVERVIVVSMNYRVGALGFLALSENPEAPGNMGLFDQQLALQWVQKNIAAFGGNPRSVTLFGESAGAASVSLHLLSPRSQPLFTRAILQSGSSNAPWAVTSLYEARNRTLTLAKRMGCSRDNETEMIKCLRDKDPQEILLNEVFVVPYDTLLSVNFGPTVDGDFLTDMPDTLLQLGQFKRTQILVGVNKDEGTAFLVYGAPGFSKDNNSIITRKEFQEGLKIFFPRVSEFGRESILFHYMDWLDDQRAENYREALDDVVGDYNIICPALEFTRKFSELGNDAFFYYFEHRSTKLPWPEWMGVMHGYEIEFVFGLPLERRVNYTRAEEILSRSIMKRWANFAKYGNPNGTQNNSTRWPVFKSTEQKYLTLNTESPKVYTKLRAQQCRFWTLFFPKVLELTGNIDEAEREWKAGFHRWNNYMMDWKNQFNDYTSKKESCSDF
Experimental: On the synthesized compounds, enzymatic inhibition studies were carried out toward Electrophorus electricus AChE (EeAChE) and equine BChE (eqBChE) according to Ellman’s spectrophotometric method.[25]
as §1, §2
Three milliliters of a solution in 0.1 M phosphate buffer (pH = 7.4) containing DTNB (0.25 mM) and EeAChE (0.083 UmL^–1) or eqBChE (0.083 UmL^–1) was placed in a polystyrene cuvette of 1.0 cm path length; 1 μL of a solution in DMSO of the tested compound was added to obtain a cuvette concentration range of 9–0.09 μM. With this solution, the blank was made. […] Each experiment was repeated at least in triplicate.

Structure (SMILES) | inhibition at 0.9 µM [%]
Brc1ccc(CNCCCCCNc2ccccn2)cc1 [Compound 24, N^1-(4-Bromobenzyl)-N^5-(pyridin-2-yl)pentane-1,5-diamine] | 12.1 ± 4.6
Clc1ccc(CNCCCCCCNc2ccccn2)cc1 [Compound 27, N^1-(4-Chlorobenzyl)-N^6-(pyridin-2-yl)hexane-1,6-diamine] | 17.7 ± 5.2
COc1cc(CNCCCCCCNc2ccccn2)cc(OC)c1OC [Compound 29, N^1-(Pyridin-2-yl)-N^6-(3,4,5-trimethoxybenzyl)hexane-1,6-diamine] | 19 ± 2.5
Oc1cccc(CNCCCCCCNc2ccccn2)c1 [Compound 31, 3-(((6-(Pyridin-2-ylamino)hexyl)amino)methyl)phenol] | 19.1 ± 2.2
Oc1cccc(CNCCCCCCNc2ccccn2)c1O [Compound 32, 3-(((6-(Pyridin-2-ylamino)hexyl)amino)methyl)benzene-1,2-diol] | 11.5 ± 2.9
Clc1cc(CNCCCCCCNc2ccccn2)cc(Cl)n1 [Compound 33, N^1-((2,6-Dichloropyridin-4-yl)methyl)-N^6-(pyridin-2-yl)hexane-1,6-diamine] | 13 ± 0.7

same assay, conditions: [I] 9 μM; 0.0833 U/mL enzyme, 100 μM acetylthiocholine; read-out: % inhibition vs eqBChE ± SD

Structure (SMILES) | inhibition at 9 µM [%]
Brc1ccc(CNCCCCCNc2ccccn2)cc1 [Compound 24, N^1-(4-Bromobenzyl)-N^5-(pyridin-2-yl)pentane-1,5-diamine] | 56.4 ± 1.6
Clc1ccc(CNCCCCCCNc2ccccn2)cc1 [Compound 27, N^1-(4-Chlorobenzyl)-N^6-(pyridin-2-yl)hexane-1,6-diamine] | 73.2 ± 3.6
COc1cc(CNCCCCCCNc2ccccn2)cc(OC)c1OC [Compound 29, N^1-(Pyridin-2-yl)-N^6-(3,4,5-trimethoxybenzyl)hexane-1,6-diamine] | 68.9 ± 4.1
Oc1cccc(CNCCCCCCNc2ccccn2)c1 [Compound 31, 3-(((6-(Pyridin-2-ylamino)hexyl)amino)methyl)phenol] | 56 ± 3.8
Oc1cccc(CNCCCCCCNc2ccccn2)c1O [Compound 32, 3-(((6-(Pyridin-2-ylamino)hexyl)amino)methyl)benzene-1,2-diol] | 59.8 ± 1.5
Clc1cc(CNCCCCCCNc2ccccn2)cc(Cl)n1 [Compound 33, N^1-((2,6-Dichloropyridin-4-yl)methyl)-N^6-(pyridin-2-yl)hexane-1,6-diamine] | 68.3 ± 2.9

same assay, conditions: read-out: % inhibition vs eqBChE ± SD (9 uM), 9 uM; supplement csv

Structure (SMILES) | inhibition at 9 µM [%]
Brc1ccc(CNCCCCCNc2ccccn2)cc1 [Compound 24, N^1-(4-Bromobenzyl)-N^5-(pyridin-2-yl)pentane-1,5-diamine] | 12.1 ± 4.6
Clc1ccc(CNCCCCCCNc2ccccn2)cc1 [Compound 27, N^1-(4-Chlorobenzyl)-N^6-(pyridin-2-yl)hexane-1,6-diamine] | 17.7 ± 5.2
COc1cc(CNCCCCCCNc2ccccn2)cc(OC)c1OC [Compound 29, N^1-(Pyridin-2-yl)-N^6-(3,4,5-trimethoxybenzyl)hexane-1,6-diamine] | 19 ± 2.5
Oc1cccc(CNCCCCCCNc2ccccn2)c1 [Compound 31, 3-(((6-(Pyridin-2-ylamino)hexyl)amino)methyl)phenol] | 19.1 ± 2.2
Oc1cccc(CNCCCCCCNc2ccccn2)c1O [Compound 32, 3-(((6-(Pyridin-2-ylamino)hexyl)amino)methyl)benzene-1,2-diol] | 11.5 ± 2.9
Clc1cc(CNCCCCCCNc2ccccn2)cc(Cl)n1 [Compound 33, N^1-((2,6-Dichloropyridin-4-yl)methyl)-N^6-(pyridin-2-yl)hexane-1,6-diamine] | 13 ± 0.7

tested on: not listed separately; experiment: Antioxidant activity, DPPH spectrophotometric method; settings: DPPH, absorbance at 515 nm
Experimental: The antioxidant activity assays were carried out according to the 2,2-diphenyl-1-picrylhydrazyl (DPPH) spectrophotometric method.[34] Initially, to assess whether the compounds had antioxidant activity and to define the time required by each antioxidant to reach the steady state, the reduction in absorbance over time at 515 nm of a solution of DPPH mixed with the tested compound was recorded until reaching the plateau. […] The value of EC50 can be extrapolated by plotting the percentage of residual DPPH at the steady state as a function of the molar ratio of the antioxidant to initial DPPH.
2,2-Diphenyl-1-picrylhydrazyl (DPPH), MeOH, and ascorbic acid, used as the reference standard, were purchased from Sigma-Aldrich. Micropipettes Labmate (BRAND Dig. 10–100 μL; Dig. 100–1000 μL) and Transferpette (HIGH TECH LAB LM200: 20–200 μL; LM5000: 1000–5000 μL) were used to collect the samples. The assays were carried out by a double beam UV–vis Lambda 40 Perkin Elmer spectrophotometer using optical polystyrene cuvettes (10 × 10 × 45 mm, 340–800 nm optical transparency); each measure was repeated at least in triplicate. For data processing, UV-WIN Lab version 2.0 (Perkin Elmer Corporation) was used. The antioxidant activity of the tested compounds was evaluated by the DPPH method[34] based on the ability of antioxidant compounds to react with the stable radical DPPH, which has a maximum absorption at about 515 nm. Thus, by measuring the decrease in absorbance over time of DPPH solutions to which increasing amounts of the tested compound are added, the antioxidant activity of the compound can be determined.
[…]. To 2.90 mL of MeOH, 60 μL of a DPPH solution in MeOH (∼1.2 mM) and 40 μL of an antioxidant solution in MeOH (4.5 mM) were added to have in the cuvette concentrations of DPPH equal to about 25 μM and of antioxidant equal to 60 μM. The exact DPPH concentration was calculated through the Lambert–Beer relation, known the extinction coefficient of DPPH at 515 nm, equal to 1.25 × 10^4.[34] The absorbance was recorded until the plateau was reached.
. To obtain the initial DPPH concentration, 2.94 mL of MeOH and 60 μL of the DPPH solution in MeOH (∼1.2 mM) were placed in a polystyrene cuvette and the absorbance was recorded at 515 nm. The exact initial DPPH concentration was calculated through the Lambert–Beer relation. For subsequent measurements, the cuvettes were set up by introducing the opportune volume of MeOH to reach a total volume of 3 mL, 60 μL of the DPPH solution in MeOH (∼1.2 mM, to have a final concentration of ∼25 μM), and the appropriate volumes of the antioxidant stock solution in MeOH to have final concentrations between 1.5 and 12 μM for 20 and between 5 and 60 μM for 18 and 30; the absorbance was recorded at 515 nm at the plateau and then after 1 min for compound 20 and after 90 min for compounds 18 and 30. Each measure was repeated four times. With absorbance data, the percentages of residual DPPH at steady state were obtained using the following equation: [drawing 3] where Ac is the average of absorbance in the presence of antioxidant at plateau and A0 is the average of the initial absorbance of DPPH.
The same procedure was performed using ascorbic acid as the antioxidant at cuvette concentrations between 1.5 and 18 μM, recording the absorbance at 515 nm after 2 min from the preparation of the cuvettes.

Structure (SMILES) | reaction time (time for reaching the plateau) [min]
CC(C)(C)OC(=O)NCCCCCCNc1ncccn1 [Compound 2, tert-Butyl {6-[(Pyrimidin-2-yl)amino]hexyl}carbamate] | 1
O=C1O[C@H]([C@@H](O)CO)C(O)=C1O [ascorbic acid, reference compound] | 2
